Results as given in patent US20090142364A1, “Method for finding novel peptide immunostimulatory adjuvants, compositions and methods of use” (priority 2007, published 2009).
Where a SMILES comes first, the peptide text is derived from it.

System: E6/1.2 mAb
Test: Solid-phase ELISA of TentaGel-bound synthesized peptide with E6/1.2 mAb
Type: binding, mouse
Method: Different biological activities are characteristic of GMDP, including adjuvant activity, induction of non-specific resistance to infections, and the ability to induce Ia-antigen expression on murine macrophages (Khaidukov S. V. 1995). In order to evaluate the biological properties, we produced RN-peptide by solid-phase synthesis by Fmoc strategy. Two types of polymers were used, namely standard Wang's resin and TentaGel (Rapp Polymere, Germany). The synthesis carried out on Wang's resin yielded, after removal of protective groups, the free peptide which was used in biological studies after standard chromatographic purification. When hydrophilic TentaGel was used as solid support, the peptide remained bound to polymer after removal of protective groups enabling evaluation of its binding to E6/1.2 mAb by solid-phase ELISA.
Peptide synthesis. All peptides were synthesized manually by the Fmoc/t-Bu technique. Wang Resin (Bachem, Switzerland) was loaded with Fmoc-Asn(Trt)-OH via diisopropylcarbodiimide-4-dimethylaminopyridine (DIC-DMAP) procedure (Heinzelmann et al. 2000). […] Coupling efficiency during polypeptide chain assembly was routinely monitored by Kaiser ninhydrine test and in case of incomplete reactions extra couplings were carried out. […]

CC[C@H](C)[C@H](NC(=O)[C@H](CCCCN)NC(=O)[C@H](C)NC(=O)[C@H](Cc1c[nH]cn1)NC(=O)[C@H](Cc1ccc(O)cc1)NC(=O)[C@H](CCCNC(=N)N)NC(=O)[C@@H]1CCCN1C(=O)[C@@H]1CCCN1C(=O)[C@@H](NC(=O)[C@@H](N)CCCNC(=N)N)C(C)C)C(=O)N[C@@H](CO)C(=O)N1CCC[C@H]1C(=O)N[C@@H](CCSC)C(=O)N[C@H](C(=O)N[C@@H](CC(N)=O)C(=O)O)C(C)C [RN-peptide, RVPPRYHAKISPMVN] (H-RVPPRYHAKISPMVN-OH)
binding to GMDP-specific mAb: retained the ability
